PMC3274641 (Bioorganic & medicinal chemistry letters, 2011)
Entries after “also recorded” stand apart in the source; their conditions may differ. Where two headings read alike, the source gives them in different places.

Columns and labels:
[1] = biological target: T1, Hα3β4 nAChRs (Homo sapiens, UniProt P30926+P32297); conditions: scaffolds; previously reported data; cited from earlier work
[2] = biological target: T2, Hα4β2 nAChRs (Homo sapiens, UniProt P17787+P43681); conditions: scaffolds; previously reported data; cited from earlier work
[3] = biological target: T1, Hα3β4 nAChRs; assay: Inhibition of Hα3β4 nAChRs by NAMs; type: cell-based; conditions: for change in potency on Hα3β4 nAChRs compared to scaffolds (in words): scaffolds KAB-18, KAB-24, COB-4, respectively
[4] = biological target: T2, Hα4β2 nAChRs; assay: cell-based; type: cell-based; conditions: for fold more potent than lead molecule KAB-18: Hα4β2 nAChRs
[5] = at the 1 year mark; agonist-antagonist therapy in combination with the nicotine patch; cited from earlier work

T1 sequence (P32297 32-505): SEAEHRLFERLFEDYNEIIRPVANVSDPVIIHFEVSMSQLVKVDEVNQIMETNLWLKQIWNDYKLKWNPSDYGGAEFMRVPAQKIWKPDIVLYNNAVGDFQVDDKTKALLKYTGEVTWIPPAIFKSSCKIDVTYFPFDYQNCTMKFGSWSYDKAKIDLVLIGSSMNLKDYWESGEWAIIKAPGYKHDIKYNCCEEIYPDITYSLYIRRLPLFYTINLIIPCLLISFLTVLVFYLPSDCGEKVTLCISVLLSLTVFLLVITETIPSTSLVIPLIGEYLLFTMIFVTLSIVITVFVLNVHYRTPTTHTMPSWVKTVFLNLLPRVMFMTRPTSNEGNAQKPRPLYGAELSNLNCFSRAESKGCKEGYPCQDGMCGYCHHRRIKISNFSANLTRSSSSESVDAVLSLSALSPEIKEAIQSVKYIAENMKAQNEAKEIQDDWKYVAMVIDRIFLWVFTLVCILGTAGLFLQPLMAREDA
T1 sequence (P30926 22-498): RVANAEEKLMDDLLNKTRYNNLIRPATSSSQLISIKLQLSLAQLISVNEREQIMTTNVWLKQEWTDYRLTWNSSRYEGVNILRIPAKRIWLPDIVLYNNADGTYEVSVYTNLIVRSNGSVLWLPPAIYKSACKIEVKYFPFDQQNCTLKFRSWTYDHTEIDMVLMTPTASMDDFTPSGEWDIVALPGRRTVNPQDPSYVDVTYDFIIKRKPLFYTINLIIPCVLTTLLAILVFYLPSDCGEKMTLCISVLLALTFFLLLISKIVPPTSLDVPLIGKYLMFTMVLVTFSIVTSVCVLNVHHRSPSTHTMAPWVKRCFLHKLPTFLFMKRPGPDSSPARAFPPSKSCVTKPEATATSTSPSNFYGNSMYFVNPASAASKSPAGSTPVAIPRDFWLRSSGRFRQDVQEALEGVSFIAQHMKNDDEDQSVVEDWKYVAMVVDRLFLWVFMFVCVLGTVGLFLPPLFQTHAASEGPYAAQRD
T2 sequence (P43681 29-627 limits assumed): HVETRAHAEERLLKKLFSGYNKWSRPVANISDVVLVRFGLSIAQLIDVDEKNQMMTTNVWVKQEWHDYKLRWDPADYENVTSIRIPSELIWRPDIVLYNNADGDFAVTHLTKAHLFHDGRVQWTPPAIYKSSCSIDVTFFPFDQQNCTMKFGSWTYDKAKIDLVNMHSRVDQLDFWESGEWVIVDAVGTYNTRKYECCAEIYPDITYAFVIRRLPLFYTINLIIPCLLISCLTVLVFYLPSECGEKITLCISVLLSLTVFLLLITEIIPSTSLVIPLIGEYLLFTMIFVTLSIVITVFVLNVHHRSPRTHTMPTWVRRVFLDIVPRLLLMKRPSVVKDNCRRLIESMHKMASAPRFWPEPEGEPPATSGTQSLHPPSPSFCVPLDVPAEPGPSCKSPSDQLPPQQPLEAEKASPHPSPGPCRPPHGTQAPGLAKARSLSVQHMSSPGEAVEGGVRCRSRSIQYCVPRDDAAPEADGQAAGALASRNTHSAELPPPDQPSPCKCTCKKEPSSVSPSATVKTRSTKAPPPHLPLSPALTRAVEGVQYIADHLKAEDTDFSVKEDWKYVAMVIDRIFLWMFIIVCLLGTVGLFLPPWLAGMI
T2 sequence (P17787 26-502): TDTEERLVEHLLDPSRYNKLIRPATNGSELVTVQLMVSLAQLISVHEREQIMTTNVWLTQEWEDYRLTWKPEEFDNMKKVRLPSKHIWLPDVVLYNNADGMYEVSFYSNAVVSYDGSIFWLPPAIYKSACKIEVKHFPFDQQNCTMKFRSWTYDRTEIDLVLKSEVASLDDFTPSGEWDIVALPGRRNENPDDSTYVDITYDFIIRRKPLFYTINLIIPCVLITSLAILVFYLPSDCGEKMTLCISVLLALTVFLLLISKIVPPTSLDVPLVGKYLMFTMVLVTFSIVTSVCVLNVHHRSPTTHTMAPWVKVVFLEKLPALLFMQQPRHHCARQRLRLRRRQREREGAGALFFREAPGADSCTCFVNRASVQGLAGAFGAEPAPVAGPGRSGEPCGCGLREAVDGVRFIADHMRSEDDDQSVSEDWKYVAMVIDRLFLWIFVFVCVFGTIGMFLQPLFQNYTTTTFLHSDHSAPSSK

## O=C(OCC1CCN(CCCc2ccccc2)CC1)c1ccccc1-c1ccccc1 [COB-4]
[1]
  nH, Hill coefficient, Hα3β4 nAChRs: −1.0
[2]
  nH, Hill coefficient, Hα4β2 nAChRs: −0.8

## O=C(NCc1ccccc1)c1ccccc1-c1ccccc1 [COB-170]
[3]
  IC50: 8.5 µM
[3]; COB series
  nH, Hill coefficient, Hα3β4 nAChRs: −1.8
[4]
  selectivity for Hα4β2 nAChRs over Hα3β4 nAChRs (in words): nonselective
  fold more potent than lead molecule KAB-18: 2 fold
[4]; COB series
  nH, Hill coefficient, Hα4β2 nAChRs: −1.1

## O=C(Nc1ccccc1)c1ccccc1-c1ccccc1 [COB-171]
[3]; COB series
  nH, Hill coefficient, Hα3β4 nAChRs: −2.2
[4]
  selectivity for Hα4β2 nAChRs over Hα3β4 nAChRs (in words): nonselective
  fold more potent than lead molecule KAB-18: 2 fold
[4]; COB series
  nH, Hill coefficient, Hα4β2 nAChRs: −1.3

## O=C(NCc1cccc2ccccc12)c1ccccc1-c1ccccc1 [COB-172]
[3]; COB series
  nH, Hill coefficient, Hα3β4 nAChRs: −0.4
[4]
  selectivity for Hα4β2 nAChRs over Hα3β4 nAChRs (in words): maintained selectivity for Hα4β2 nAChRs
[4]; COB series
  nH, Hill coefficient, Hα4β2 nAChRs: −0.7
[4]; compared to lead molecule KAB-18
  change in potency on Hα4β2 nAChRs (in words): no change in potency; also recorded: maintained potency

## O=C(Nc1ccccn1)c1ccccc1-c1ccccc1 [COB-173]
[3]; COB series
  nH, Hill coefficient, Hα3β4 nAChRs: −0.9
[4]
  selectivity for Hα4β2 nAChRs over Hα3β4 nAChRs (in words): nonselective
[4]; COB series
  nH, Hill coefficient, Hα4β2 nAChRs: −1.0

## O=C(Nc1ccncn1)c1ccccc1-c1ccccc1 [COB-174]
[3]; COB series
  nH, Hill coefficient, Hα3β4 nAChRs: −0.9
[4]
  selectivity for Hα4β2 nAChRs over Hα3β4 nAChRs (in words): nonselective
[4]; COB series
  nH, Hill coefficient, Hα4β2 nAChRs: −1.5

## O=C(Nc1cccc2ccccc12)c1ccccc1-c1ccccc1 [COB-175]
[3]; COB series
  nH, Hill coefficient, Hα3β4 nAChRs: −1.2
[4]; COB series
  nH, Hill coefficient, Hα4β2 nAChRs: −0.8
[4]; over Hα3β4 nAChRs
  fold preference for Hα4β2 nAChRs: 2 fold

## O=C(OC1CCCN(CCCc2ccccc2)C1)c1ccccc1-c1ccccc1 (centres unmarked) [DDR-14]
[1]
  nH, Hill coefficient, Hα3β4 nAChRs: −1.4
[2]
  nH, Hill coefficient, Hα4β2 nAChRs: −1.6

## O=C(OCC1CCCN(CCCc2ccccc2)C1)c1ccccc1-c1cccc2ccccc12 (centres unmarked) [FFB-1]
[3]
  IC50: 178 µM
[4]; training set, selectivity Hα4β2 vs Hα3β4
  Obs. [SI] QSSR (Hα4β2/Hα3β4): 1.29

## O=C(OC1CCCN(C(=O)CCc2ccccc2)C1)c1ccccc1-c1ccccc1 (centres unmarked) [IMB-132]
[3]; IMB series
  nH, Hill coefficient, Hα3β4 nAChRs: −1.6
[3]; compared to DDR-14
  fold decrease in potency on Hα3β4 nAChRs compared to scaffold molecule: 2 fold
[4]
  IC50: 2.7 µM
[4]; IMB series
  nH, Hill coefficient, Hα4β2 nAChRs: −1.6

## O=C(OCC1CCCN(C(=O)CCc2ccccc2)C1)c1ccccc1C(F)(F)F (centres unmarked) [IMB-134]
[3]; IMB series
  nH, Hill coefficient, Hα3β4 nAChRs: −2.1
[3]
  change in potency on Hα3β4 nAChRs compared to scaffolds (in words): no change in potency
[4]; IMB series
  nH, Hill coefficient, Hα4β2 nAChRs: −1.5

## O=C(OCC1CCN(C(=O)CCc2ccccc2)CC1)c1ccccc1-c1ccccc1 [IMB-135]
[3]; IMB series
  nH, Hill coefficient, Hα3β4 nAChRs: −1.5
[3]
  change in potency on Hα3β4 nAChRs compared to scaffolds (in words): no change in potency

## O=C(OCC1CCCN(CCCc2ccccc2)C1)c1ccccc1-c1ccccc1 (centres unmarked) [KAB-18]
[2]
  nH, Hill coefficient, Hα4β2 nAChRs: −1.4

## O=C(OCC1CCCN(CCCc2ccccc2)C1)c1ccccc1C(F)(F)F (centres unmarked) [KAB-24]
[1]
  nH, Hill coefficient, Hα3β4 nAChRs: −0.8
[2]
  nH, Hill coefficient, Hα4β2 nAChRs: −0.8

## CNC1(C)C2CCC(C2)C1(C)C (centres unmarked) [Mecamylamine]
[5]
  abstinence: 40%
